Where a name gives a salt, the structure may show the parent alone. Read-outs that look alike come from different tables or passages of the source.
Experiments:
[1] = molecular target: T1, NR1/NR2B ionotropic receptors encoded by the human GRIN1/GRIN2B genes, expressed in HEK293 cells (Homo sapiens, UniProt Q05586+Q13224); assay: Syncropatch automated patch clamp on NR1/NR2B receptors in HEK293 cells, agonist mode; type: cell-based; settings: for EC50 / NR1/NR2B PCA agonist EMAX: plus 50 μM glycine; for NR1/NR2B PCA agonist EMAX: relative to current produced by 100 μM glutamate (EMAX set as 100%)
Protocol: (§1) The following patch clamp study investigates these effects on NR1/NR2B ionotropic receptors encoded by the human GRIN1/GRIN2B genes, expressed in HEK293 cells. Compounds were evaluated for functional effects on these ion channel receptors.
(§2) The assay was carried out using an HTS electrophysiology-based approach with the Syncropatch 384pe automated patch clamp system (Nanion), while using HEK293 cells that have been transfected with human GRIN1/GRIN2B genes to express NR1/NR2B ionotropic receptors
(§3) HEK293 cells were transfected with the appropriate ion channel or receptor cDNA(s) encoding NR1 and NR2B. Stable transfectants were selected using the G418 and Zeocin-resistance genes incorporated into the expression plasmid. Selection pressure was maintained with G418 and Zeocin in the culture medium. Cells were cultured in Dulbecco's Modified Eagle Medium/Nutrient Mixture F-12 (D-MEM/F-12) supplemented with 10% fetal bovine serum, 100 U/ml penicillin G sodium, 100 ug/mL streptomycin sulfate, 100 ug/mL Zeocin, 5 ug/mL blasticidin and 500 ug/mL G418.
(§4) Before testing, cells in culture dishes were washed twice with DPBS solution. Immediately before testing, the cells were washed in HB-PS containing 10 mM CaCl2 to improve sealing.
(§5) Compounds were evaluated in 8-point concentration-response format (4 replicate wells/concentration). The compound formulations were loaded in e.g. a 384-well compound plate and placed in the Syncropatch plate well.
(§6) The agonist positive control (L-glutamate) was applied at eight (8) concentrations (0.03-100 μM; n=4, where n=the number of replicates) together with 50 μM glycine.
(§7) 2× concentration of test compounds and antagonist control was pre-applied 2 minutes before application of L-glutamate/glycine mixed with 1× concentration of test compound. Glutamate and glycine was applied to naive cells (n=4, where n=the number of replicate wells/concentration) via a multi-channel pipettor.
(§8) • a) Intracellular solution (mM): 50 mM CsCl, 90 mM CsF, 2 mM MgCl2, 5 mM EGTA, 10 mM HEPES. Adjust to pH 7.2 with CsOH. This solution was prepared in batches and stored refrigerated.
(§9) • a) Extracellular buffer was loaded into the multi holes plate wells (40 μL per well).
(§10) Activation was calculated in two ways based on the following measurements: • 1. peak current amplitudes, and • 2. current amplitude 4-5 seconds after agonist addition.
(§11) Data acquisition was performed via the […] and data was analyzed using Microsoft Excel™ (Microsoft™ Corp., Redmond, WA). Concentration-response data was filled to a Hill equation of the following form: […]
(§12) where Base is the response in the absence of test article (vehicle treatment), Max is the maximum response at high concentrations, xhalf is the EC50, or IC50, the concentration of test compound producing either half-maximal activation or inhibition, and rate is the Hill coefficient. Nonlinear least squares fits were made assuming a simple binding model. If appropriate, fits were weighted by the standard deviation. No assumptions about the fit parameters were made; the fit parameters were determined by algorithm. Raw reduced data was analyzed using Microsoft Excel Office 365 ProPlus (Microsoft™ Corp., Redmond, WA) and XLfit (Excel addon, Copyright© IDBS 2016).
as §1
HEK293 cells were transfected with the appropriate ion channel or receptor cDNA(s) encoding NR1 and NR2B. Stable transfectants were selected using the G418 and Zeocin-resistance genes incorporated into the expression plasmid. Selection pressure was maintained with G418 and Zeocin in the culture medium.

[2] = molecular target: T1, NR1/NR2B ionotropic receptors encoded by the human GRIN1/GRIN2B genes, expressed in HEK293 cells; assay: Syncropatch automated patch clamp on NR1/NR2B receptors in HEK293 cells, antagonist mode (co-applied with 2 μM glutamate and 50 μM glycine); type: cell-based; settings: for inhibits glutamate and glycine activation of NR1/NR2B receptors in vitro: PCA and SSC measurements, conclusion in words; for NR1/NR2B PCA antagonist HillSlope: co-applied with 2 μM glutamate and 50 μM glycine
Protocol: as §1, §2, §3, §4, §5, §6, §7, §8, §9, §10, §11, §12
Antagonist activity of test articles was examined after stimulation of receptors with 2 μM glutamate and 50 μM glycine in the presence of increasing concentrations of test articles. Two measurements were performed, first was a peak current amplitude and second was a steady state current between 4th and 6th seconds following agonist application.
as §1
HEK293 cells were transfected with the appropriate ion channel or receptor cDNA(s) encoding NR1 and NR2B.

[3] = system: cortical damage in a model of permanent focal ischemia; settings: cited from earlier work
[4] = molecular target: NR1C and NR2B receptors over NR1C+NR2A receptors (Homo sapiens, UniProt Q05586+Q13224); settings: cited from earlier work
[5] = steady state current amplitude (SSC) table

T1 sequence (Q13224 27-1484, other chains not shown): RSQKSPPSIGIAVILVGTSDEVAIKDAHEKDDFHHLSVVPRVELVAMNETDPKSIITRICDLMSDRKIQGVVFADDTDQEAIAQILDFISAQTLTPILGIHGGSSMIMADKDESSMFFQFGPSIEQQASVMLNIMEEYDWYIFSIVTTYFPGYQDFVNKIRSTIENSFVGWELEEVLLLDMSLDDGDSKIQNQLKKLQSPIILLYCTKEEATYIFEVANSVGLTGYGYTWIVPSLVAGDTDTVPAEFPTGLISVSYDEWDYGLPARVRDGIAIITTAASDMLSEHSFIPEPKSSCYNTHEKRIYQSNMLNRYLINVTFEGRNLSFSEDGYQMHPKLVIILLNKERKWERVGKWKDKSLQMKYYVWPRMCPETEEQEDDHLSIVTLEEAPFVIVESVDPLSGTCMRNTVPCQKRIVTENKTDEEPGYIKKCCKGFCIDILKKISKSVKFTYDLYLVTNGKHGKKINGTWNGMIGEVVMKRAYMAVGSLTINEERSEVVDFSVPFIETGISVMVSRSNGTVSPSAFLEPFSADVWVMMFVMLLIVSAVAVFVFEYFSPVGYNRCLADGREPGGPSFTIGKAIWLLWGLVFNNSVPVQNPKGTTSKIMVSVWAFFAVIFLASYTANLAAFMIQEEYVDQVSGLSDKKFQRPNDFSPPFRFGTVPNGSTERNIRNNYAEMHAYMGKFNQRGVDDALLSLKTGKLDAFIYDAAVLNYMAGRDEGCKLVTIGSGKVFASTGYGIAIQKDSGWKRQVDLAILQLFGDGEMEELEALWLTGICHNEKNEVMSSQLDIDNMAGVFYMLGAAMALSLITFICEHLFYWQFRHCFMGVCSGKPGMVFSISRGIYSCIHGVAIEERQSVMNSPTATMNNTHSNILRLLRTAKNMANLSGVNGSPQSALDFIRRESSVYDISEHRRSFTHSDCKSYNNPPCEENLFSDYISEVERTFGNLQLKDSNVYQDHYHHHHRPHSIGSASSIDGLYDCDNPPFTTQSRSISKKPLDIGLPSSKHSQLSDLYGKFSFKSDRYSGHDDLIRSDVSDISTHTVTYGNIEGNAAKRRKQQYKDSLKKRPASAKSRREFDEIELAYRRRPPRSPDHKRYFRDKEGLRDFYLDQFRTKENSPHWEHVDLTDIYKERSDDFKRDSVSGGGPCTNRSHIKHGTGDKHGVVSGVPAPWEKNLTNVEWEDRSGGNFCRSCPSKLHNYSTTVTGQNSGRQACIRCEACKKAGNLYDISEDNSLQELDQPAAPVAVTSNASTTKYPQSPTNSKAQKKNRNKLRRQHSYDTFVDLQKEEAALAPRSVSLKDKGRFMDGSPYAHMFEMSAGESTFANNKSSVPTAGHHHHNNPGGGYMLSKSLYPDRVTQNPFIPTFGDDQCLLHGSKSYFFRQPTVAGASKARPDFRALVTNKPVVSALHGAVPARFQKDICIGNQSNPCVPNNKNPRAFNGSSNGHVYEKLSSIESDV
Sequence of NR1C and NR2B receptors over NR1C+NR2A receptors (Q13224 27-1484, other chains not shown): as above

N[C@@H](CCC(=O)O)C(=O)[O-].O.[Na+] [Glutamate, L-Glutamic acid monosodium salt monohydrate]
NR1/NR2B PCA agonist HillSlope ([1]; peak current amplitude (PCA)): −0.86 | EC50 ([1]; peak current amplitude (PCA)): 3.03 µM | NR1/NR2B PCA agonist EMAX ([1]; peak current amplitude (PCA)): 100.00% | NR1/NR2B PCA agonist HillSlope [1, 5]: −0.95 | EC50 ([1]; steady state current amplitude (SSC) table, read-out: NR1/NR2B PCA agonist EC50): 0.82 µM | NR1/NR2B PCA agonist EMAX [1, 5]: 100.00%

CC(C(O)c1ccc(O)cc1)N1CCC(Cc2ccccc2)CC1.O=C(O)c1ccccc1 (centres unmarked) [Ifenprodil benzoate]
inhibits glutamate and glycine activation of NR1/NR2B receptors in vitro [2]: comparable to ifenprodil tartrate | NR1/NR2B PCA antagonist HillSlope ([2]; peak current amplitude (PCA)): 1.39 | NR1/NR2B PCA antagonist HillSlope [2, 5]: 1.25

CC(C(O)c1ccc(O)cc1)N1CCC(Cc2ccccc2)CC1 (centres unmarked) [Ifenprodil fumarate]
NR1/NR2B PCA antagonist HillSlope ([2]; peak current amplitude (PCA), listed as fumarate): 0.79 | NR1/NR2B PCA antagonist HillSlope ([2]; steady state current amplitude (SSC) table, listed as fumarate): 0.61

CC(C(O)c1ccc(O)cc1)N1CCC(Cc2ccccc2)CC1 (centres unmarked) [Ifenprodil nicotinate]
NR1/NR2B PCA antagonist HillSlope ([2]; peak current amplitude (PCA), listed as nicotinate): 0.71 | NR1/NR2B PCA antagonist HillSlope ([2]; steady state current amplitude (SSC) table, listed as nicotinate): 0.71

C[C@@H]([C@H](O)c1ccc(O)cc1)N1CCC(Cc2ccccc2)CC1 [Ifenprodil oleate]
inhibits glutamate and glycine activation of NR1/NR2B receptors in vitro [2]: comparable to ifenprodil tartrate | NR1/NR2B PCA antagonist HillSlope ([2]; peak current amplitude (PCA)): 0.79 | NR1/NR2B PCA antagonist HillSlope [2, 5]: 0.86

CC(C(O)c1ccc(O)cc1)N1CCC(Cc2ccccc2)CC1 (centres unmarked) [Ifenprodil pamoate]
inhibits glutamate and glycine activation of NR1/NR2B receptors in vitro [2]: comparable to ifenprodil tartrate | NR1/NR2B PCA antagonist HillSlope ([2]; peak current amplitude (PCA), listed as pamoate): 1.59 | NR1/NR2B PCA antagonist HillSlope ([2]; steady state current amplitude (SSC) table, listed as pamoate): 0.77

CC12CC3CC(C)(C1)CC(N)(C3)C2 [Memantine, memantine chloride, reference compound]
NR1/NR2B PCA antagonist HillSlope ([2]; peak current amplitude (PCA)): 1.12 | NR1/NR2B PCA antagonist HillSlope [2, 5]: 1.08

Cc1ccc(CC2(O)CCN(CCOc3ccc(O)cc3)CC2)cc1 [Ro 63-1908]
neuroprotective effect against cortical damage [3]: dose-related neuroprotective effect | selectivity for the NR1C and NR2B receptors over NR1C+NR2A receptors [4]: 20,000 fold

— US20250009730A1 (priority 2021, published 2025)
